A short description of series [1]: The drug is tested on Z-011 corresponding to mouse gut metagenome with ENA study accession number: PRJEB37062 and ENA sample accession number: ERS12561811 for biotransformation under anaerobic condition. The drug concentrations were measured over 9 timepoints collected between 0 and 24 hours of incubation by liquid-chromatography-coupled mass spectrometry (LC–MS). Particulars: 2 µM.

Series [2] can be described thus: The drug is tested on Z-023 corresponding to metagenome with ENA study accession number: PRJEB37062 and ENA sample accession number: ERS12561822 for biotransformation under anaerobic condition. The drug concentrations were measured over 9 timepoints collected between 0 and 24 hours of incubation by liquid-chromatography-coupled mass spectrometry (LC–MS). Particulars: 2 µM.

Series [3] is described as follows: The drug is tested on Z-008 corresponding to metagenome with ENA study accession number: PRJEB37062 and ENA sample accession number: ERS12561808 for biotransformation under anaerobic condition. The drug concentrations were measured over 9 timepoints collected between 0 and 24 hours of incubation by liquid-chromatography-coupled mass spectrometry (LC–MS). Particulars: 2 µM.

Series [4] can be described thus: The drug is tested on Z-001 corresponding to mouse gut metagenome with ENA study accession number: PRJEB37062 and ENA sample accession number: ERS12561801 for biotransformation under anaerobic condition. The drug concentrations were measured over 9 timepoints collected between 0 and 24 hours of incubation by liquid-chromatography-coupled mass spectrometry (LC–MS). Particulars: 2 µM.

Series [5] in a line: The drug is tested on Z-024 corresponding to pig gut metagenome with ENA study accession number: PRJEB37062 and ENA sample accession number: ERS12561823 for biotransformation under anaerobic condition. The drug concentrations were measured over 9 timepoints collected between 0 and 24 hours of incubation by liquid-chromatography-coupled mass spectrometry (LC–MS). Particulars: 2 µM.

The nature of series [6]: The drug is tested on Z-026 corresponding to metagenome with ENA study accession number: PRJEB37062 and ENA sample accession number: ERS12561825 for biotransformation under anaerobic condition. The drug concentrations were measured over 9 timepoints collected between 0 and 24 hours of incubation by liquid-chromatography-coupled mass spectrometry (LC–MS). Particulars: 2 µM.

Series [7] is described as follows: The drug is tested on Z-012 corresponding to metagenome with ENA study accession number: PRJEB37062 and ENA sample accession number: ERS12561812 for biotransformation under anaerobic condition. The drug concentrations were measured over 9 timepoints collected between 0 and 24 hours of incubation by liquid-chromatography-coupled mass spectrometry (LC–MS). Particulars: 2 µM.

Series [8] in a line: The drug is tested on Z-022 corresponding to mouse gut metagenome with ENA study accession number: PRJEB37062 and ENA sample accession number: ERS12561821 for biotransformation under anaerobic condition. The drug concentrations were measured over 9 timepoints collected between 0 and 24 hours of incubation by liquid-chromatography-coupled mass spectrometry (LC–MS). Particulars: 2 µM.

Series [9] in a line: The drug is tested on Z-002 corresponding to rabbit gut metagenome with ENA study accession number: PRJEB37062 and ENA sample accession number: ERS12561802 for biotransformation under anaerobic condition. The drug concentrations were measured over 9 timepoints collected between 0 and 24 hours of incubation by liquid-chromatography-coupled mass spectrometry (LC–MS). Particulars: 2 µM.

A short description of series [10]: The drug is tested on Z-007 corresponding to rat gut metagenome with ENA study accession number: PRJEB37062 and ENA sample accession number: ERS12561807 for biotransformation under anaerobic condition. The drug concentrations were measured over 9 timepoints collected between 0 and 24 hours of incubation by liquid-chromatography-coupled mass spectrometry (LC–MS). Particulars: 2 µM.

Series [11] in a line: The drug is tested on Z-006 corresponding to mouse gut metagenome with ENA study accession number: PRJEB37062 and ENA sample accession number: ERS12561806 for biotransformation under anaerobic condition. The drug concentrations were measured over 9 timepoints collected between 0 and 24 hours of incubation by liquid-chromatography-coupled mass spectrometry (LC–MS). Particulars: 2 µM.

Series [12] can be described thus: The drug is tested on Z-003 corresponding to pig gut metagenome with ENA study accession number: PRJEB37062 and ENA sample accession number: ERS12561803 for biotransformation under anaerobic condition. The drug concentrations were measured over 9 timepoints collected between 0 and 24 hours of incubation by liquid-chromatography-coupled mass spectrometry (LC–MS). Particulars: 2 µM.

Series [13] is described as follows: The drug is tested on Z-010 corresponding to metagenome with ENA study accession number: PRJEB37062 and ENA sample accession number: ERS12561810 for biotransformation under anaerobic condition. The drug concentrations were measured over 9 timepoints collected between 0 and 24 hours of incubation by liquid-chromatography-coupled mass spectrometry (LC–MS). Particulars: 2 µM.

Series [14] in a line: The drug is tested on Z-027 corresponding to metagenome with ENA study accession number: PRJEB37062 and ENA sample accession number: ERS12561826 for biotransformation under anaerobic condition. The drug concentrations were measured over 9 timepoints collected between 0 and 24 hours of incubation by liquid-chromatography-coupled mass spectrometry (LC–MS). Particulars: 2 µM.

Series [15] can be described thus: The drug is tested on Z-005 corresponding to metagenome with ENA study accession number: PRJEB37062 and ENA sample accession number: ERS12561805 for biotransformation under anaerobic condition. The drug concentrations were measured over 9 timepoints collected between 0 and 24 hours of incubation by liquid-chromatography-coupled mass spectrometry (LC–MS). Particulars: 2 µM.

Series [16] is described as follows: The drug is tested on Z-004 corresponding to metagenome with ENA study accession number: PRJEB37062 and ENA sample accession number: ERS12561804 for biotransformation under anaerobic condition. The drug concentrations were measured over 9 timepoints collected between 0 and 24 hours of incubation by liquid-chromatography-coupled mass spectrometry (LC–MS). Particulars: 2 µM.

Series [17] is described as follows: The drug is tested on Z-021 corresponding to metagenome with ENA study accession number: PRJEB37062 and ENA sample accession number: ERS12561820 for biotransformation under anaerobic condition. The drug concentrations were measured over 9 timepoints collected between 0 and 24 hours of incubation by liquid-chromatography-coupled mass spectrometry (LC–MS). Particulars: 2 µM.

Series [18] is described as follows: The drug is tested on Z-028 corresponding to mouse gut metagenome with ENA study accession number: PRJEB37062 and ENA sample accession number: ERS12561827 for biotransformation under anaerobic condition. The drug concentrations were measured over 9 timepoints collected between 0 and 24 hours of incubation by liquid-chromatography-coupled mass spectrometry (LC–MS). Particulars: 2 µM.

The nature of series [19]: The drug is tested on Z-009 corresponding to pig gut metagenome with ENA study accession number: PRJEB37062 and ENA sample accession number: ERS12561809 for biotransformation under anaerobic condition. The drug concentrations were measured over 9 timepoints collected between 0 and 24 hours of incubation by liquid-chromatography-coupled mass spectrometry (LC–MS). Particulars: 2 µM.

The conditions of series [20]: human gut metagenome, 24 h, 2 µM.
For series [21] the following is noted: human gut metagenome, 24 h, 2 µM. The source holds these as a separate data set.
Series [22] is described as follows: The drug is tested on WLS-370 corresponding to human gut metagenome with ENA study accession number: PRJEB37062 and ENA sample accession number: ERS12561793 for biotransformation under anaerobic condition. The drug concentrations were measured over 9 timepoints collected between 0 and 24 hours of incubation by liquid-chromatography-coupled mass spectrometry (LC–MS). Particulars: 2 µM.

For series [23] the following is noted: human gut metagenome, 24 h, 2 µM. The source holds these as a separate data set.
For series [24] the following is noted: human gut metagenome, 24 h, 2 µM. The source holds these as a separate data set.
For series [25] the following is noted: human gut metagenome, 24 h, 2 µM. This is another data set of the same source.
For series [26] the following is noted: human gut metagenome, 24 h, 2 µM. The source holds these as a separate data set.
The conditions of series [27]: human gut metagenome, 24 h, 2 µM. The source holds these as a separate data set.
The conditions of series [28]: human gut metagenome, 24 h, 2 µM. The source holds these as a separate data set.
The conditions of series [29]: human gut metagenome, 24 h, 2 µM. The source holds these as a separate data set.
For series [30] the following is noted: human gut metagenome, 24 h, 2 µM. This is another data set of the same source.
Series [31] in a line: The drug is tested on WLS-098 corresponding to human gut metagenome with ENA study accession number: PRJEB37062 and ENA sample accession number: ERS12561754 for biotransformation under anaerobic condition. The drug concentrations were measured over 9 timepoints collected between 0 and 24 hours of incubation by liquid-chromatography-coupled mass spectrometry (LC–MS). Particulars: 2 µM.

Series [32] can be described thus: The drug is tested on WLS-170 corresponding to human gut metagenome with ENA study accession number: PRJEB37062 and ENA sample accession number: ERS12561762 for biotransformation under anaerobic condition. The drug concentrations were measured over 9 timepoints collected between 0 and 24 hours of incubation by liquid-chromatography-coupled mass spectrometry (LC–MS). Particulars: 2 µM.
Note: call rule not given here.

Turning to `C[C@H]1C[C@H]2[C@@H]3CCC4=CC(=O)C=C[C@]4(C)[C@@]3(F)[C@@H](O)C[C@]2(C)[C@@]1(O)C(=O)CO` [BETAMETHASONE], the “Bacterial Biotransformation” value in [1] is listed as “Compound NOT metabolized”; in [2], “Compound metabolized”; in series [3] it was “Compound NOT metabolized”; in series [4], “Compound NOT metabolized”; in [5], “Compound metabolized”; in [6] it was “Compound metabolized”. The “Bacterial Biotransformation” value in series [7] is “Compound metabolized”; in [8], “Compound metabolized”; in [9], “Compound metabolized”; in [10], “Compound NOT metabolized”; in series [11], “Compound NOT metabolized”; in [12] it was “Compound metabolized”. Further, the “Bacterial Biotransformation” value is reported as “Compound metabolized” in series [13]; “Compound NOT metabolized” in series [14]; “Compound NOT metabolized” in [15]; “Compound metabolized” in [16]; “Compound metabolized” in series [17]; “Compound NOT metabolized” in series [18]. In addition, the “Bacterial Biotransformation” value in [19] is “Compound metabolized”.
With `CN1CCN(CCCN2c3ccccc3Sc3ccc(Cl)cc32)CC1.O=S(=O)(O)CCS(=O)(=O)O` [PROCHLORPERAZINE EDISYLATE], the “Bacterial Biotransformation” value in series [2] was “Compound metabolized”; in series [3], “Compound NOT metabolized”; in series [6], “Compound metabolized”; in series [7], “Compound metabolized”; in [9] it was “Compound NOT metabolized”; in [11], “Compound NOT metabolized”. The figures for the “Bacterial Biotransformation” value in [17] and in [19] were “Compound NOT metabolized” and “Compound metabolized”, respectively.
On to `CN(C)CCOC(c1ccc(Cl)cc1)c1ccccn1.O=C(O)/C=C\C(=O)O` (stereo not given) [CARBINOXAMINE MALEATE], for which the “Bacterial Biotransformation” value is “Compound metabolized” in series [20]; “Compound NOT metabolized” in series [21]; “Compound NOT metabolized” in [22]; “Compound NOT metabolized” in [23]; “Compound metabolized” in series [24]; “Compound NOT metabolized” in series [25]. Also, the “Bacterial Biotransformation” value in [26] was “Compound metabolized”; in series [27], “Compound NOT metabolized”; in [28], “Compound NOT metabolized”; in series [29] it was “Compound NOT metabolized”; in series [30], “Compound NOT metabolized”; in [31], “Compound NOT metabolized”. In [32], the “Bacterial Biotransformation” value is “Compound metabolized”.
